Experimental data from patent US11787782B2, “Combinations of a 4-pyrimidinesulfamide derivative with active ingredients for the treatment of endothelin related diseases” (IDORSIA PHARMACEUTICALS LTD, priority 2017, dated 2023).

Experiments:
patients with rHT = details: 14 week phase 3 trial, cited from earlier work
[1] = system: conscious, male hypertensive Dahl salt-sensitive rats; assay: Acute effects on MAP and HR by telemetry in Dahl salt-sensitive rats; assay type: in vivo, rat; details: Dahl-S rats
Procedure: The acute effects of ACT-132577 on blood pressure, in particular on mean arterial blood pressure (hereafter “MAP”), and heart rate (hereafter “HR”) were evaluated by means of telemetry in conscious, male hypertensive Dahl salt-sensitive rats (hereafter “Dahl-S rats”—see details about this model in Rapp, Hypertension (1982), 4, 753-763). Elevated blood pressure is induced in Dahl-S rats by providing 1% sodium chloride in drinking water. Groups of 6-7 Dahl-S rats were used for the vehicle (7.5% gelatin aqeuous solution) and each dose of ACT-132577 tested (0.3, 1, 3, 10, 30, 100, and 300 mg/kg). Effects of ACT-132577 on HR and MAP were calculated for individual animals relative to the 24 h period before administering. The results obtained regarding MAP (maximal MAP decrease observed over 6 consecutive hours) are summarised in FIG. 9 (data are presented as mean±standard error of the mean). In summary, a dose of 10 mg/kg ACT-132577 decreased MAP by 19±4 mm Hg in Dahl-S rats. In contrast to MAP, HR was not affected.

[2] = in comparison to corresponding alkylated derivatives; cited from earlier work
[3] = system: conscious, male spontaneously hypertensive rats; assay: Acute effects on top of Exforge HCT in SHRs (telemetry); assay type: in vivo, rat; details: for Blood pressure when added on top of Exforge HCT: aprocitentan 100 mg/kg or spironolactone 300 mg/kg oral, Exforge HCT 1.6/0.1/0.25 mg/kg
Procedure: The acute effects of Exforge HCT® (i.e. a fixed dose combination of valsartan/amlodipine/hydrochlorothiazide; dosage adapted for 1.6 mg/kg/0.1 mg/kg/0.25 mg/kg for valsartan/amlodipine/hydrochlorothiazide, respectively) on blood pressure, in particular on mean arterial blood pressure (hereafter “MAP”), and heart rate (hereafter “HR”) in combination with ACT-132577 or spironolactone were also evaluated by means of telemetry in conscious, male spontaneously hypertensive rats (hereafter “SHRs”-see details about this model in Atanur et al., Genome Res. (2010), 20, 791-803).
9 SHRs per treatment group were used for this test. To match the maximal effect on blood pressure of co-administered drug in this model, aprocitentan 100 mg/kg was administrated orally on the 3rd day following 3-day oral administration of Exforge HCT® mg/kg and spironolactone 300 mg/kg was co-administered orally with Exforge HCT® on the 1st day followed by 2 days of Exforge HCT® administration. The results obtained regarding MAP are summarised in FIGS. 19 and 20 wherein each data point is presented as a 6-hour mean.

[4] = system: conscious, male hypertensive deoxycorticosterone acetate salt rats; assay: Acute effects on MAP and HR by telemetry in DOCA-salt rats; assay type: in vivo, rat
Procedure: The acute effects of ACT-132577 on blood pressure, in particular on mean arterial blood pressure (hereafter “MAP”), and heart rate (hereafter “HR”) were evaluated by means of telemetry in conscious, male hypertensive deoxycorticosterone acetate salt rats (hereafter “DOCA-salt rats”—see details about this model in Gavras et al., Circ. Res. (1975), 36, 300-309). In the DOCA-salt rats, hypertension is induced by the combination of unilateral nephrectomy, implantation of pellets of the mineralocorticoid analog DOCA, and provision of 1% sodium chloride in drinking water. Groups of 6-11 DOCA-salt rats were used for the vehicle (7.5% gelatin aquous solution) and each dose of ACT-132577 tested (0.3, 1, 3, 10, 30, 100, and 300 mg/kg). Effects of ACT-132577 on HR and MAP were calculated for individual animals relative to the 24 h period before administering. The results obtained regarding MAP (maximal MAP decrease observed over 6 consecutive hours) are summarised in FIG. 10 (data are presented as mean±standard error of the mean). In summary, a dose of 10 mg/kg ACT-132577 decreased MAP by 29±6 mm Hg in DOCA-salt rats. In contrast to MAP, HR was not affected.

[5] = system: conscious, male spontaneously hypertensive rats; assay: Acute effects on MAP and HR by telemetry in spontaneously hypertensive rats; assay type: in vivo, rat; details: SHRs
Procedure: The acute effects of ACT-132577 on blood pressure, in particular on mean arterial blood pressure (hereafter “MAP”), and heart rate (hereafter “HR”) were evaluated by means of telemetry in conscious, male spontaneously hypertensive rats (hereafter “SHRs”—see details about this model in Atanur et al., Genome Res. (2010), 20, 791-803). Groups of 4-6 SHRs were used for the vehicle (7.5% gelatin aquous solution) and each dose of ACT-132577 tested (1, 3, 10, 30, 100, and 300 mg/kg). Effects of ACT-132577 on HR and MAP were calculated for individual animals relative to the 24 h period before administering. The results obtained regarding MAP (maximal MAP decrease observed over 6 consecutive hours) are summarised in FIG. 11 (data are presented as mean±standard error of the mean). In summary, a dose of 100 mg/kg ACT-132577 decreased MAP by 18±4 mm Hg in SHRs. In contrast to MAP, HR was not affected.

male Wistar rats = assay: Effect on fluid retention (haematocrit) in Wistar rats; assay type: in vivo, rat; details: single oral dose 1-30 mg/kg, 24 hours after administration
Procedure: A decrease in haematocrit (Hct) or haemoglobin occurs secondary to an increase in plasma volume and can be used as a marker of fluid retention. A single oral dose of aprocitentan (1-30 mg/kg) or vehicle (gelatin) was administered by gavage to male Wistar rats. Twenty-four hours after administration, sublingual blood was sampled under isoflurane-induced anesthesia. Haematocrit was measured using a hematology analyser.

[6] = system: conscious, male hypertensive deoxycorticosterone acetate salt rats; assay: Chronic effects of repeated oral administration in DOCA-salt rats; assay type: in vivo, rat
Procedure: The chronic effects of repeated administrations of doses of 1, 10 and 100 mg/kg/day of ACT-132577, in particular mean arterial blood pressure (hereafter “MAP”), and heart rate (hereafter “HR”), were evaluated in conscious, male hypertensive deoxycorticosterone acetate salt rats (hereafter “DOCA-salt rats”-see details about this model in Gavras et al., Circ. Res. (1975), 36, 300-309). In the DOCA-salt rats, hypertension is induced by the combination of unilateral nephrectomy, implantation of pellets of the mineralocorticoid analog DOCA, and provision of 1% sodium chloride in drinking water. The results of the DOCA-salt rats treated with ACT-132577 were compared to those obtained for Wistar rats or for DOCA-salt rats that received only the vehicle (4% gelatin aquous solution).

[7] = system: conscious, male hypertensive deoxycorticosterone acetate salt rats; assay: Acute effects on top of Exforge HCT in DOCA-salt rats (telemetry); assay type: in vivo, rat; details: for Blood pressure when added on top of Exforge HCT: aprocitentan 10 mg/kg or spironolactone 300 mg/kg oral, Exforge HCT 3.2/0.2/0.5 mg/kg
Text: Res. (1975), 36, 300-309). In the DOCA-salt rats, hypertension is induced by the combination of unilateral nephrectomy, implantation of pellets of the mineralocorticoid analog DOCA, and provision of 1% sodium chloride in drinking water. 7-9 DOCA-salt rats per treatment group were used for this test. The results obtained regarding MAP are summarised in FIGS. 21 and 22 wherein each data point is presented as a 6-hour mean.

[8] = Storage at room temperature (crystal form stability, XRPD and HPLC control); assay type: physicochemical; details: 20-25° C.
Procedure: All XRPD patterns for the solid forms described herein have been obtained as described hereafter. X-ray powder diffraction patterns were collected on a Bruker D8 Advance X-ray diffractometer equipped with a Lynxeye detector operated with CuKα-radiation in reflection mode (coupled two Theta/Theta). Typically, the X-ray tube was run at of 40 kV/40 mA. A step size of 0.02° (2θ) and a step time of 76.8 sec over a scanning range of 3-50° in 2θ were applied. The divergence slit was set to fixed 0.3. Powders were slightly pressed into a silicon single crystal sample holder with depth of 0.5 mm and samples were rotated in their own plane during the measurement. Diffraction data are reported using combined Cu Kα1 and Kα2 radiation, without Kα2 stripping. The accuracy of the 2θ values as provided herein is in the range of +/−0.1-0.2° as it is generally the case for conventionally recorded X-ray powder diffraction patterns. A sample of Form A crystals of the COMPOUND (as obtained according to Example 1 above) has been stored at a temperature of 20-25° C. at 92% relative humidity for 2 months. […] The same result was obtained after storage for 8 weeks under the above conditions. […] A sample of Form B crystals of a dichloromethane solvate of the COMPOUND (as obtained according to Example 2 above) has been stored in a closed vial ([…] of Form B crystals being placed in a closed 4 mL vial) at a temperature of 20-25° C. for about 3 weeks. […] A sample of Form K crystals of a dimethylsulfoxide solvate of the COMPOUND (as obtained according to Example 7 above) has been stored in a closed vial ([…] of Form K crystals being placed in a closed 4 mL vial) at a temperature of 20-25° C. for about 3 weeks.

[9] = Hygroscopicity by gravimetric vapor sorption (GVS); assay type: physicochemical
Text: Mass increase of a sample as obtained according to Example 1 in the first cycle from 40% r.h. to 80% r.h. corresponds to 0.4%. At 95% r.h. 2.2% moisture were taken up in a reversible way without hysteresis upon drying.

[10] = 10 mg/kg, mean±standard error of the mean
[11] = DOCA-salt rats, 1, 10 and 100 mg/kg/day oral for 4 weeks
[12] = DOCA-salt rats, chronic oral administration

For `COc1cc(OC)nc(O[C@H](C(=O)O)C(OC)(c2ccccc2)c2ccccc2)n1` [darusentan], the “Fluid retention/edema (most frequent adverse event)” value (patients with rHT; 12% in each of the other groups) is given as 28%, the “Primary endpoint systolic blood pressure” value (patients with rHT) is given as “failed to show significant treatment effect” and the “Reduction of ambulatory blood pressure” value (patients with rHT) is given as “demonstrated efficacy”.

In the case of `NS(=O)(=O)Nc1ncnc(OCCOc2ncc(Br)cn2)c1-c1ccc(Br)cc1` [ACT-132577, {5-(4-bromo-phenyl)-6-[2-(5-bromo-pyrimidin-2-yloxy)-ethoxy]-pyrimidin-4-yl}-sulfamide], the “MAP decrease (maximal decrease over 6 consecutive hours)” value (“MAP decrease” below) [1, 10] is given as 19±4 mm Hg, the “Heart rate (HR)” value ([1]; doses 0.3-300 mg/kg) is given as “not affected” and the Clearance in vivo [2] is given as “much shorter clearance”. The Half-life in vivo [2] was “much longer half-life”, the “Blood pressure when added on top of Exforge HCT” value (“Blood pressure when added on top” below) [3] was “further reduced blood pressure” and the “Blood pressure reduction compared with spironolactone, on top of Exforge HCT” value ([3]; aprocitentan 100 mg/kg vs spironolactone 300 mg/kg) was “greater blood pressure reduction than spironolactone”. The “MAP decrease” value [4, 10] was 29±6 mm Hg, the “Heart rate (HR)” value ([4]; doses 0.3-300 mg/kg) was “not affected” and the “MAP decrease” value ([5]; 100 mg/kg, mean±standard error of the mean) was 18±4 mm Hg. For the same compound, the “Heart rate (HR)” value ([5]; doses 1-300 mg/kg) was “not affected”, the “Haematocrit (Hct), marker of fluid retention” value (male Wistar rats) was “did not impact on haematocrit” and the “DOCA-salt-induced increase in MAP” value [6, 11] was “dose-dependently attenuated the DOCA-salt-induced increase in MAP”. For the same compound, the “Heart rate (HR)” value [6, 11] was “without changing HR”, the Left ventricular hypertrophy [6, 12] was “tended to decrease left ventricular hypertrophy” and the “Plasma concentrations of N-terminal pro-brain natriuretic peptide (NTproBNP)” value [6, 12] was “dose-dependent decrease”. The Renal blood flow [6, 12] was “dose-dependently increased renal blood flow”, the Renal vascular resistance [6, 12] was “decreased renal vascular resistance” and the “Blood pressure when added on top” value [7] was “further reduced blood pressure”. The “Blood pressure reduction compared with spironolactone, on top of Exforge HCT” value ([7]; aprocitentan 10 mg/kg vs spironolactone 300 mg/kg) was “greater blood pressure reduction than spironolactone”.

With `NS(=O)(=O)Nc1ncnc(OCCOc2ncc(Br)cn2)c1-c1ccc(Br)cc1` [Form A, {5-(4-bromo-phenyl)-6-[2-(5-bromo-pyrimidin-2-yloxy)-ethoxy]-pyrimidin-4-yl}-sulfamide] the “Crystal form by X-ray powder diffraction after storage” value ([8]; 92% relative humidity, 2 months) was “still consisting only in Form A crystals”, the “Crystal form by X-ray powder diffraction after storage” value ([8]; 92% relative humidity, 8 weeks) was “same result” and the “HPLC control after storage (change in peak area %, degradation)” value ([8]; 92% relative humidity, 8 weeks) was “no significant degradation”. The Moisture taken up ([9]; at 95% r.h., reversible, without hysteresis upon drying) was 2.2%, the Mass increase ([9]; first cycle from 40% r.h. to 80% r.h.) was 0.4% and the “Hygroscopicity (GVS)” value ([9]; sample obtained according to Example 1) was “slightly hygroscopic”.

For `NS(=O)(=O)Nc1ncnc(OCCOc2ncc(Br)cn2)c1-c1ccc(Br)cc1` [Form B, {5-(4-bromo-phenyl)-6-[2-(5-bromo-pyrimidin-2-yloxy)-ethoxy]-pyrimidin-4-yl}-sulfamide], the “Crystal form by X-ray powder diffraction after storage in a closed vial” value ([8]; closed 4 mL vial, about 3 weeks) was “transformed into Form A crystals”.

For `CC(=O)S[C@@H]1CC2=CC(=O)CC[C@]2(C)[C@H]2CC[C@@]3(C)[C@@H](CC[C@@]34CCC(=O)O4)[C@H]12` [spironolactone, reference compound], the “Blood pressure when added on top” value [3] was “further reduced blood pressure” and the “Blood pressure when added on top” value [7] was “further reduced blood pressure”.
